Experimental data: patent US11654199B2 (BOLT BIOTHERAPEUTICS, INC., priority 2019, dated 2023)
pEC50: −log10 of the molar value.

Tests used:
[1] = biological target: T1, human TLR7 (Homo sapiens, UniProt Q9NYK1); assay: HEK293 NFKB reporter assay, human TLR7; assay type: cell-based; conditions: HEK293 NFKB reporter cells expressing human TLR7; read-out: HEK293 hTLR7 EC50
T1 construct: host or cells: HEK293 reporter cells
T1 sequence (Q9NYK1 27-1049): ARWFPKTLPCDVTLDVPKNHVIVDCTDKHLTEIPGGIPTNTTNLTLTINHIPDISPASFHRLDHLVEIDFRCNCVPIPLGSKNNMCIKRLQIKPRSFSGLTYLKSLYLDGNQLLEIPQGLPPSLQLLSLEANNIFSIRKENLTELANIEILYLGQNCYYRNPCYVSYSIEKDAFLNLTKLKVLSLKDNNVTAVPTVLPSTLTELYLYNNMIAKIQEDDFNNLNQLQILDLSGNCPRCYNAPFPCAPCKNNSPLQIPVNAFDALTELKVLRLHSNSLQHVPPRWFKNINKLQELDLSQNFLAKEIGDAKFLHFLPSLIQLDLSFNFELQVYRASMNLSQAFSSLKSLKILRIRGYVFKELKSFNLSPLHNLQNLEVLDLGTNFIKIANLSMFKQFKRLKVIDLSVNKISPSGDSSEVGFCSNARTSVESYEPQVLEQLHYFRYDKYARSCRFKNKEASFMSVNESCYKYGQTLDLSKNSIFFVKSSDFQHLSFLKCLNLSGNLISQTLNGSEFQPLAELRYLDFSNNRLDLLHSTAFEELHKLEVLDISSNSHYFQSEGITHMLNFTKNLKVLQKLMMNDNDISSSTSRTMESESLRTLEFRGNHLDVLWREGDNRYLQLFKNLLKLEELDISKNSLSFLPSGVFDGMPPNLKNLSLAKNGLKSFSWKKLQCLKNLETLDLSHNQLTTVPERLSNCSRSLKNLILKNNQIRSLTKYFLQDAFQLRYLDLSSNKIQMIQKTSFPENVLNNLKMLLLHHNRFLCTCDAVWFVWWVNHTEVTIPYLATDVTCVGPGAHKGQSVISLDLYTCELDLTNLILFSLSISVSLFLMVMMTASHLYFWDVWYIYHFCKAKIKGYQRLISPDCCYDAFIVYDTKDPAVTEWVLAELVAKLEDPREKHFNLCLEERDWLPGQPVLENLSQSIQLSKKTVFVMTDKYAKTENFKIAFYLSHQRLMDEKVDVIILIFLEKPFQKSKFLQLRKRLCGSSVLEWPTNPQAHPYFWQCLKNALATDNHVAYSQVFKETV
Experimental: (§1) Each compound was synthesized, purified, and characterized by mass spectrometry and shown to have the mass indicated. Additional experimental procedures are found in the Examples. Activity against HEK293 NFKB reporter cells expressing human TLR7 or human TLR8 was measured according to Example 202.
(§2) HEK293 reporter cells expressing human TLR7 or human TLR8 were purchased from Invivogen and vendor protocols were followed for cellular propagation and experimentation. Briefly, cells were grown to 80-85% confluence at 5% CO2 in DMEM supplemented with 10% FBS, Zeocin, and Blasticidin. Cells were then seeded in 96-well flat plates at 4×10^4 cells/well with substrate containing HEK detection medium and immunostimulatory molecules. Activity was measured using a plate reader at 620-655 nm wavelength.

[2] = biological target: T2, human TLR8 (Homo sapiens, UniProt Q9NR97); assay: HEK293 NFKB reporter assay, human TLR8; assay type: cell-based; conditions: HEK293 NFKB reporter cells expressing human TLR8; read-out: HEK293 hTLR8 EC50
T2 construct: host or cells: HEK293 reporter cells
T2 sequence (Q9NR97 27-1041): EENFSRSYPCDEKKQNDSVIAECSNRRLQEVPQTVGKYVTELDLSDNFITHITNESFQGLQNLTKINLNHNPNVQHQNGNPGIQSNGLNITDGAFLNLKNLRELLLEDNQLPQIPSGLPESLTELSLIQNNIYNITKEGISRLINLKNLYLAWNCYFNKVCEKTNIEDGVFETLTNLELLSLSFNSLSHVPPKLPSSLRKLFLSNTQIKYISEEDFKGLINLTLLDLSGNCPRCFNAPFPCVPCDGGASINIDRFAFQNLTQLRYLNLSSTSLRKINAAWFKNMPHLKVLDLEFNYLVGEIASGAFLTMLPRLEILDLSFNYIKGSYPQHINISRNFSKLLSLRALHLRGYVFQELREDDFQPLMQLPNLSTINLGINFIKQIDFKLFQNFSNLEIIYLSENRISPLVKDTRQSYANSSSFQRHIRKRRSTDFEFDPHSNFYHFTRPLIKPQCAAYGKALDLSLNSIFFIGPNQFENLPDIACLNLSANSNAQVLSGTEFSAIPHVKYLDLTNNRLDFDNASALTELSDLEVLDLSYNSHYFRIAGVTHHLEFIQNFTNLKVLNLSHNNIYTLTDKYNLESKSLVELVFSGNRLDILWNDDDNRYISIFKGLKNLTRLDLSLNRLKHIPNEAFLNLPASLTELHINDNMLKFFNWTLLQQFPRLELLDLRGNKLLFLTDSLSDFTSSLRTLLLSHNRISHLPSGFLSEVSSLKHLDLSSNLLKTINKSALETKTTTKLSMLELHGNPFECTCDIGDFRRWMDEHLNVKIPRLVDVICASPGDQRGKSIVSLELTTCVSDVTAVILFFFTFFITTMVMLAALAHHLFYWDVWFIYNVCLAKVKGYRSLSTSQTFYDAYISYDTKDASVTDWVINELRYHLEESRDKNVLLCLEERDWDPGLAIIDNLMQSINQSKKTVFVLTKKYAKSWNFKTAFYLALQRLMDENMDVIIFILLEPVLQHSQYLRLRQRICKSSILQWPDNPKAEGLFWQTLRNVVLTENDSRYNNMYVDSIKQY
Experimental: as §1, §2

| SMILES | pEC50 [1] | pEC50 [2] |
| --- | --- | --- |
| CCCN(OCC)C(=O)C1=Cc2sc(CCC3CCNCC3)cc2N=C(N)C1 [TAZ-176, 5-amino-N-ethoxy-2-[2-(4-piperidyl)ethyl]-N-propyl-6H-thieno[3,2-b]azepine-7-carboxamide] | 6.04 | 6.60 |
| CCCN(OCCNC(=O)CC(C)(C)C)C(=O)C1=Cc2sc(CCCCCNC(=O)OC(C)(C)C)cc2N=C(N)C1 [TAZ-150] | 5.70 | 5.78 |
| CCCN(Cc1ccc(CCN)cc1)C(=O)C1=Cc2sccc2N=C(N)C1 [TAZ-58] | < 5.05 | 5.89 |
| CCCN(OCC)C(=O)C1=Cc2sc(CC3CNC3)cc2N=C(N)C1 [TAZ-183, 5-amino-2-(azetidin-3-ylmethyl)-N-ethoxy-N-propyl-6H-thieno[3,2-b]azepine-7-carboxamide] | 5.45 | 6.31 |
| CCCN(OCC)C(=O)C1=Cc2sc(CC3CN(C(C)=O)C3)cc2N=C(N)C1 [TAZ-252] | 5.35 | 6.06 |
| CCCN(Cc1ccc(CN(C)C)c(C(F)(F)F)n1)C(=O)C1=Cc2sc(CCCCCN)cc2N=C(N)C1 [TAZ-145] | 5.23 | 5.40 |
| CCCN(Cc1ccc(CN)nc1)C(=O)C1=Cc2sccc2N=C(N)C1 [TAZ-63] | 5.38 | 6.29 |
| CCCN(Cc1ccc(CNC(=O)OC(C)(C)C)cn1)C(=O)C1=Cc2sccc2N=C(N)C1 [TAZ-42] | < 5.05 | < 5.05 |
| CCCN(Cc1ccc(CN2CCN(C(=O)OC(C)(C)C)CC2)cc1)C(=O)C1=Cc2sccc2N=C(N)C1 [TAZ-34] | < 5.05 | 6.47 |
| CCCN(C[C@H]1C[C@@H](CNC(=O)OC(C)(C)C)C1)C(=O)C1=Cc2sccc2N=C(N)C1 [TAZ-48] | < 5.05 | < 5.05 |
| CCCN(OCC)C(=O)C1=Cc2sc(CCCCCN)cc2N=C(N)C1 [TAZ-76] | 5.46 | 5.85 |
| CCCN(C(=O)C1=Cc2sccc2N=C(N)C1)C(C)c1ccc(CN)cc1 (centres unmarked) [TAZ-88] | < 5.05 | 5.64 |
| CCCN(OCC)C(=O)C1=Cc2sc(CN3CCCNCC3)cc2N=C(N)C1 [TAZ-225] | 5.59 | 5.92 |
| CCCN(OCCNC(=O)OC1CCC1)C(=O)C1=Cc2sc(CC3CNC3)cc2N=C(N)C1 [TAZ-238, cyclobutyl N-[2-[[5-amino-2-(azetidin-3-ylmethyl)-6H-thieno[3,2-b]azepine-7-carbonyl]-propyl-amino]oxyethyl]carbamate] | 6.95 | 6.54 |
| CCCN(CCC)C(=O)C1=Cc2sc(CNC(=O)CNC(=O)OC(C)(C)C)cc2N=C(N)C1 [TAZ-93] | 5.35 | 5.50 |
| CCCN(CCCNC(=O)OC1CCC1)C(=O)C1=Cc2sc(CC3CCN(C(=O)OC(C)(C)C)CC3)cc2N=C(N)C1 [TAZ-177] | 6.05 | 5.47 |
| CCON(Cc1ccc(CN)cc1)C(=O)C1=Cc2sccc2N=C(N)C1 [TAZ-79] | < 5.05 | 5.38 |
| CCCN(CCC)C(=O)C1=Cc2sc(CO)cc2N=C(N)C1 [TAZ-99] | < 5.05 | 5.44 |
| CCCN(OCC)C(=O)C1=Cc2sc(CCC3CNC3)cc2N=C(N)C1 [TAZ-195] | 5.18 | 6.02 |
| CCCN(OCC)C(=O)C1=Cc2sccc2N=C(N)C1 [TAZ-53] | 5.44 | 6.74 |

| SMILES | pEC50 [1] | pEC50 [2] |
| --- | --- | --- |
| CCCN(Cc1ccc(CN)cc1C(F)(F)F)C(=O)C1=Cc2sccc2N=C(N)C1 [TAZ-52, 5-amino-N-[[4-(aminomethyl)-2-(trifluoromethyl)phenyl]methyl]-N-propyl-6H-thieno[3,2-b]azepine-7-carboxamide] | 5.57 | 6.82 |
| CCCN(OCC)C(=O)C1=Cc2sc(C#CC3CCNCC3)cc2N=C(N)C1 [TAZ-174] | 5.24 | 5.78 |
| CCCN(OCC)C(=O)C1=Cc2sc(CN3CC[C@H]4NC[C@H]4C3)cc2N=C(N)C1 [TAZ-227] | 5.36 | 5.64 |
| CCCN(CCC)C(=O)C1=Cc2sc(COCCCNC(=O)OC(C)(C)C)cc2N=C(N)C1 [TAZ-66] | 5.35 | 5.37 |
| CCCN(OCC)C(=O)C1=Cc2sc(CN3CC(CNC(=O)OC(C)(C)C)C3)cc2N=C(N)C1 [TAZ-210] | 5.81 | 5.53 |
| CCCN(CC12CC(CNC(=O)OC(C)(C)C)(C1)C2)C(=O)C1=Cc2sccc2N=C(N)C1 [TAZ-40] | < 5.05 | < 5.05 |
| CCCN(CCC)C(=O)C1=Cc2sc(C#CCCCNC(=O)OC(C)(C)C)cc2N=C(N)C1 [TAZ-6, tert-butyl N-[5-[5-amino-7-(dipropylcarbamoyl)-6H-thieno[3,2-b]azepin-2-yl]pent-4-ynyl] carbamate] | < 5.05 | < 5.05 |
| CCCN(CCC)C(=O)C1=Cc2sc(C(=O)NCCCN)cc2N=C(N)C1 [TAZ-32] | < 5.05 | < 5.05 |
| CCCN(CCC)C(=O)C1=Cc2sc(CN3CCN(C)CC3)cc2N=C(N)C1 [TAZ-129] | 5.25 | 6.07 |
| CCCN(OCC)C(=O)C1=Cc2sc(CCC3(O)CNC3)cc2N=C(N)C1 [TAZ-200] | 5.54 | 5.39 |
| CCON(C(=O)C1=Cc2sc(CC3CN(C(=O)OC(C)(C)C)C3)cc2N=C(N)C1)C(C)CC (centres unmarked) [TAZ-254] | 5.09 | 5.08 |
| CCCN(Cc1ccc(CN)c(C(F)(F)F)c1)C(=O)C1=Cc2sccc2N=C(N)C1 | 6.04 | 7.46 |
| CCCN(OC(C)C)C(=O)C1=Cc2sc(CC3CN(C(=O)OC(C)(C)C)C3)cc2N=C(N)C1 [TAZ-249] | 6.44 | 6.19 |
| CCCN(CCC)C(=O)C1=Cc2sc(CNC(=O)CCNC(=O)OC(C)(C)C)cc2N=C(N)C1 [TAZ-91] | 5.37 | 5.38 |
| CCCN(OCC)C(=O)C1=Cc2sc(CCC3CN(C(=O)OC(C)(C)C)C3)cc2N=C(N)C1 [TAZ-194] | 6.33 | 6.20 |
| CCCN(CCC)C(=O)C1=Cc2sc(C#CCCN)cc2N=C(N)C1 [TAZ-35] | < 5.05 | 5.54 |
| [2H]C1=C(C(=O)N(CCC)Cc2ccc(CNC(=O)OC(C)(C)C)nc2)CC(N)=Nc2ccsc21 [TAZ-50] | 5.15 | 5.10 |
| CCCN(OCC)C(=O)C1=Cc2sc(CN3CCC(C(=O)OC)CC3)cc2N=C(N)C1 [TAZ-222] | 5.31 | 5.55 |
| CCCN(OCC)C(=O)C1=Cc2sc(CCCN3CCNCC3)cc2N=C(N)C1 [TAZ-244] | 5.61 | 6.84 |
| CCCN(Cc1ccc(CN(C)C)cc1C(F)(F)F)C(=O)C1=Cc2sc(CCCCCN)cc2N=C(N)C1 [TAZ-144] | 5.89 | 5.54 |
